# Reference: ChEMBL document CHEMBL1155386, “Synthesis and evaluation of 2-pyridylbenzothiazole, 2-pyridylbenzoxazole and 2-pyridylbenzofuran derivatives as 11C-PET imaging agents for beta-amyloid plaques” (Bioorg Med Chem Lett, 2010)
# Activity calls are given as the source filed them. No cut-off for these calls is given here.
# Columns and labels:
# [1] = Lipophilicity, log D of the compound; format: physicochemical; details: octanol/water
# [2] = target: T1, Amyloid-beta precursor protein (Homo sapiens, UniProt P05067); experiment: Displacement of [3H]PIB from human amyloid beta (1 to 40) after 30 mins by liquid scintillation counting
# [3] = target: T1, Amyloid-beta precursor protein; experiment: Binding affinity to Abeta (1 to 40) in brain cortex of patient with Alzheimer's disease by autoradiography relative to non-specific unlabelled PIB binding; format: tissue-based; details: tested as the 3H-labelled form
# Mus musculus = experiment: Ex vivo binding affinity to amyloid beta (1 to 40) of APP/PS1 transgenic mouse brain at 10.3 nmol/kg, iv after 10 mins by autoradiography; format: functional, organism-based; details: tested as the 3H-labelled form
# T1 sequence (P05067 whole entry): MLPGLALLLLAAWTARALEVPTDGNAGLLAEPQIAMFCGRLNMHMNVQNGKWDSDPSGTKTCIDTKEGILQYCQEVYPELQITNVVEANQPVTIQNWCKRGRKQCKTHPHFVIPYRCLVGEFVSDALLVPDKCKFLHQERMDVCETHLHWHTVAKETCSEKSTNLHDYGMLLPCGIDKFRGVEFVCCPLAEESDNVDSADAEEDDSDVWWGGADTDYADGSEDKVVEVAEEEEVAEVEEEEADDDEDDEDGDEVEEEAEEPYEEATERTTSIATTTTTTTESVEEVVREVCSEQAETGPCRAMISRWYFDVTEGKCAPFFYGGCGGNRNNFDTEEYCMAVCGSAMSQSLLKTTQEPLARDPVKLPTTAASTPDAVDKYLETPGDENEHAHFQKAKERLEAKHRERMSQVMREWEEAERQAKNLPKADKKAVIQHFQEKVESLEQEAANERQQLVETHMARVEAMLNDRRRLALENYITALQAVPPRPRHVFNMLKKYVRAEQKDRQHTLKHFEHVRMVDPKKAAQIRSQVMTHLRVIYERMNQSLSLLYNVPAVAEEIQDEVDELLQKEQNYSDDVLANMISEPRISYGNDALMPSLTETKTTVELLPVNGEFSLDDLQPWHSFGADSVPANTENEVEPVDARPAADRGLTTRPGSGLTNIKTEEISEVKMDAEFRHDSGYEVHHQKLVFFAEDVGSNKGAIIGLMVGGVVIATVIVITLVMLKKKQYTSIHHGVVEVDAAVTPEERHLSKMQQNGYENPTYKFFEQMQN
SMILES,logD [1],IC50 [2] [nM],Activity [3],Activity (Mus musculus)
CNc1ccc2nc(-c3ccc(C(N)=O)nc3)sc2c1,1.7,35,,
[3H]N(c1ccc(-c2nc3ccc(O)cc3o2)cn1)C([3H])([3H])[3H],1.3,182,,
CNc1ccc(-c2nc3cc(O)ccc3s2)cn1,1.5,74,,
CNc1ccc(-c2nc3ccc(O)cc3s2)cn1,,,Active,Active
[3H]N(c1ccc(-c2nc3ccc(OC)cc3s2)cn1)C([3H])([3H])[3H],3.2,58,,
[3H]N(c1ccc(-c2nc3ccc(O)cc3s2)cn1)C([3H])([3H])[3H],1.8,58,,
COc1ccc2nc(-c3ccc(N(C)C)nc3)sc2c1,4.2,81,,
CN(C)c1ccc(-c2nc3cc(O)ccc3o2)cn1,2.2,137,,
CN(C)c1ncc(-c2nc3ccc(O)cc3s2)cn1,2.2,41,,
COc1ccc2cc(-c3ccc(C(N)=O)cn3)oc2c1,2.8,33,,
CNc1ccc(-c2nc3ccc(OC)cc3s2)cn1,,,inactive,
CNc1ccc(-c2nc3ccc(O)cc3o2)cn1,,,Active,Active
[3H]C([3H])([3H])N(c1ccc(-c2nc3ccc(O)cc3o2)cn1)C([3H])([3H])[3H],1.9,85,,
COc1ccc2cc(-c3ccc(C(N)=O)nc3)oc2c1,1.7,60,,
CNc1ccc(-c2nc3ccc(OC)cc3o2)cn1,2.7,,,
CN(C)c1ccc(-c2nc3ccc(O)cc3s2)cn1,,,inactive,
[3H]C([3H])([3H])N(c1ccc(-c2nc3ccc(OC)cc3o2)cn1)C([3H])([3H])[3H],3.7,204,,
CNc1ccc(-c2nc3ccc(O)cc3s2)cc1,,,,Active
CNc1ccc(-c2cc3ccc(OC)cc3o2)cn1,3.8,66,,
[3H]C([3H])([3H])N(c1ccc(-c2nc3ccc(O)cc3s2)cn1)C([3H])([3H])[3H],2.4,19,,
COc1ccc2nc(-c3ccc(N(C)C)nc3)oc2c1,,,inactive,
CNc1ccc(-c2cc3ccc(O)cc3o2)cn1,2,45,,
CNc1ncc(-c2nc3ccc(O)cc3s2)cn1,0.9,267,,
CNc1ccc(-c2nc3ccc(C(N)=O)cc3s2)cn1,0.5,85,,
[3H]C([3H])([3H])N(c1ncc(-c2nc3ccc(O)cc3o2)cn1)C([3H])([3H])[3H],1.8,75,,
